Results: patent publication US20220388964A1 (HiberCell, Inc., priority 2019, published 2022)

Biological target: GCN2 (Homo sapiens, UniProt Q9P2K8)
Assay: TR-FRET biochemical assay for inhibition of GCN2 (Example 106, for Example 1-4BB)

Sequence of GCN2 (Q9P2K8 whole entry): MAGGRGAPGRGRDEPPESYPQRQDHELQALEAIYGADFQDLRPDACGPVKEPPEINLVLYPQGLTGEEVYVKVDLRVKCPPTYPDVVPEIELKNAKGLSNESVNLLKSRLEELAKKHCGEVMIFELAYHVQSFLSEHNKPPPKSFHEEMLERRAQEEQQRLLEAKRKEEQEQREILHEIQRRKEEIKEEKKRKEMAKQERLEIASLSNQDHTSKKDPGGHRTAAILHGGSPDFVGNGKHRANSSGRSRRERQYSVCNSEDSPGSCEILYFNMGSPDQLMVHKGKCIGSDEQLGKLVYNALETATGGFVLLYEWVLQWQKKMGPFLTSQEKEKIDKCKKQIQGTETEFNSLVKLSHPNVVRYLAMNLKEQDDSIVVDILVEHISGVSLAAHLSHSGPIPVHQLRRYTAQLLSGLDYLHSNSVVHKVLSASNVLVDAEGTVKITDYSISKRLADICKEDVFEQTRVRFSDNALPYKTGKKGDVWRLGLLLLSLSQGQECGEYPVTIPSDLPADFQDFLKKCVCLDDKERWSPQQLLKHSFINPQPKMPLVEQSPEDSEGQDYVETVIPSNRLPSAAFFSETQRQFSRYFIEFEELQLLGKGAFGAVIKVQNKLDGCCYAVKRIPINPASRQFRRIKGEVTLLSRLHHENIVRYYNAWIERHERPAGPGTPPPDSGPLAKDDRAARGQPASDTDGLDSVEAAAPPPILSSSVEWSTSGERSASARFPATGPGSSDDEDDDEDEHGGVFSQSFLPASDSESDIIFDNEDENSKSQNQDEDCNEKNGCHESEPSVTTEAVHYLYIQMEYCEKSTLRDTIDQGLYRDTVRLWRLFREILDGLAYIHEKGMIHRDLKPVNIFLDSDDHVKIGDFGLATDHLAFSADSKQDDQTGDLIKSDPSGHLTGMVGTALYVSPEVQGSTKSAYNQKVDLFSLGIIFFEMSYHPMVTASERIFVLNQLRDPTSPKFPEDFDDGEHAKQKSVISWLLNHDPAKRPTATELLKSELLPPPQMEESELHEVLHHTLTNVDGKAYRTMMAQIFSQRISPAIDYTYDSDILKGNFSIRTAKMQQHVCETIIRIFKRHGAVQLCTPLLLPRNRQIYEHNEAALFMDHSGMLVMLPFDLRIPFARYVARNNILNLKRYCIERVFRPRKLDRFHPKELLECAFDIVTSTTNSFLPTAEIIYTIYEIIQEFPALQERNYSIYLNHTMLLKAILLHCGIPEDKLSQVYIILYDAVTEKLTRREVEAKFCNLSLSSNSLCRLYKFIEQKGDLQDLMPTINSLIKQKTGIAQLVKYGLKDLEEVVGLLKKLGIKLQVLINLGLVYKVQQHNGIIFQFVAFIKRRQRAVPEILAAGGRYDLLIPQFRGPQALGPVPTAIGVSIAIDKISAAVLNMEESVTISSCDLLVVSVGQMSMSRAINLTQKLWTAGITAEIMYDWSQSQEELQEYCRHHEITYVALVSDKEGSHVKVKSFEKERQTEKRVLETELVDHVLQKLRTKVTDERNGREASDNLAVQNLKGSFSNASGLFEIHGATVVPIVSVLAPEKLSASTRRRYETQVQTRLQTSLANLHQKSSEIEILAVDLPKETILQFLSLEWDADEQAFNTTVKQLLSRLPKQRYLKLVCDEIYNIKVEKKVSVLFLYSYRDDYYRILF

Compound	IC50 (Table 8) [µM]	IC50 (Table 9) [µM]
O=S(=O)(Nc1ccc(F)c(-c2ccc3c(-c4ncc[nH]4)n[nH]c3c2F)c1F)c1cccnc1CO [Example 2Q, N-(2,4-difluoro-3-(7-fluoro-3-(1H-imidazol-2-yl)-1H-indazol-6-yl)phenyl)-2-(hydroxyl-methyl)pyridine-3-sulfonamide]	0.5 to 2.5	
N#Cc1ccccc1S(=O)(=O)Nc1ccc(F)c(-c2ccc3c(-c4ncc[nH]4)n[nH]c3c2F)c1F [Example 2BK, 2-cyano-N-(2,4-difluoro-3-(7-fluoro-3-(1H-imidazol-2-yl)-1H-indazol-6-yl)phenyl)-benzenesulfonamide]	< 0.5	
Cc1oncc1S(=O)(=O)Nc1ccc(F)c(-c2ccc3c(-c4ncc[nH]4)n[nH]c3c2F)c1F [Example 2AE, N-(2,4-difluoro-3-(7-fluoro-3-(1H-imidazol-2-yl)-1H-indazol-6-yl)phenyl)-5-methylisoxazole-4-sulfonamide]	> 10	
Cc1cnc(C)c(S(=O)(=O)Nc2ccc(F)c(-c3ccc4c(-c5ncc[nH]5)n[nH]c4c3F)c2F)c1 [Example 2AH, N-(2,4-difluoro-3-(7-fluoro-3-(1H-imidazol-2-yl)-1H-indazol-6-yl)phenyl)-2,5-dimethyl-pyridine-3-sulfonamide]	< 0.5	
O=S(=O)(Nc1ccc(F)c(-c2ccc3c(-c4ncc[nH]4)n[nH]c3c2F)c1F)c1ccc(F)c(F)c1 [Example 2BO, N-(2,4-difluoro-3-(7-fluoro-3-(1H-imidazol-2-yl)-1H-indazol-6-yl)phenyl)-3,4-difluorobenzenesulfonamide]	0.5 to 2.5	
COc1nn(C)cc1S(=O)(=O)Nc1ccc(F)c(-c2ccc3c(-c4ncc[nH]4)n[nH]c3c2F)c1F [Example 2K, N-(2,4-difluoro-3-(7-fluoro-3-(1H-imidazol-2-yl)-1H-indazol-6-yl)phenyl)-3-methoxy-1-methyl-1H-pyrazole-4-sulfonamide]	0.5 to 2.5	
COc1ncccc1S(=O)(=O)Nc1ccc(F)c(-c2ccc3c(-c4ncc[nH]4)n[nH]c3c2F)c1F [Example 2U, N-(2,4-difluoro-3-(7-fluoro-3-(1H-imidazol-2-yl)-1H-indazol-6-yl)phenyl)-2-methoxy-pyridine-3-sulfonamide]	< 0.5	
O=S(=O)(Nc1ccc(F)c(-c2ccc3c(-c4ccccc4)n[nH]c3c2)c1F)c1cc(F)ccc1F [Example 10, N-(2,4-Difluoro-3-(3-phenyl-1H-indazol-6-yl)phenyl)-2,5-difluorobenzenesulfonamide]		2.5 to 10
Cc1ncc(C#N)cc1S(=O)(=O)Nc1ccc(F)c(-c2ccc3c(-c4ncc[nH]4)n[nH]c3c2F)c1F [Example 3I, 5-cyano-N-(2,4-difluoro-3-(7-fluoro-3-(1H-imidazol-2-yl)-1H-indazol-6-yl)phenyl)-2-methylpyridine-3-sulfonamide]		< 0.5
COc1ncc(Cl)cc1S(=O)(=O)Nc1ccnc(-c2ccc3c(-c4ncc[nH]4)n[nH]c3c2)c1F [Example 2CB, N-(2-(3-(1H-imidazol-2-yl)-1H-indazol-6-yl)-3-fluoro-pyridin-4-yl)-5-chloro-2-methoxypyridinc-3-sulfonamide]	< 0.5	
Cc1nn(C)c(C)c1S(=O)(=O)Nc1ccc(F)c(-c2ccc3c(-c4ncc[nH]4)n[nH]c3c2F)c1F [Example 2E, N-(2,4-difluoro-3-(7-fluoro-3-(1H-imidazol-2-yl)-1H-indazol-6-yl)phenyl)-1,3,5-trimethyl-1H-pyrazole-4-sulfonamide]	0.5 to 2.5	
Cc1ccc(F)cc1S(=O)(=O)Nc1ccc(F)c(-c2ncc3c(-c4ncc[nH]4)n[nH]c3c2F)c1F [Example 38, N-[2,4-difluoro-3-[7-fluoro-3-(1H-imidazol-2-yl)-1H-pyrazolo[4,3-c]pyridin-6-yl]phenyl]-5-fluoro-2-methyl-benzenesulfonamide]		< 0.5
Cc1nn(C)cc1S(=O)(=O)Nc1ccc(F)c(-c2ccc3c(-c4ncc[nH]4)n[nH]c3c2F)c1F [Example 2I, N-(2,4-difluoro-3-(7-fluoro-3-(1H-imidazol-2-yl)-1H-indazol-6-yl)phenyl)-1,3-dimethyl-1H-pyrazole-4-sulfonamide]	0.5 to 2.5	

More lines, now with the values ahead:

IC50 (Table 8) [µM]	IC50 (Table 9) [µM]	Compound
< 0.5		COc1ncc(Cl)cc1S(=O)(=O)Nc1ccc(F)c(-c2ccc3c(-c4ccn[nH]4)n[nH]c3c2F)c1F [Example 2BZ, 5-chloro-N-(2,4-difluoro-3-(7-fluoro-3-(1H-pyrazol-5-yl)-1H-indazol-6-yl)phenyl)-2-methoxypyridine-3-sulfonamide]
	< 0.5	COc1ncc(F)cc1S(=O)(=O)Nc1ccc(F)c(-c2ccc3c(C(=O)NCCCO)n[nH]c3c2F)c1F [Example 3R, 6-(2,6-difluoro-3-((5-fluoro-2-methoxypyridine)-3-sulfonamido)phenyl)-7-fluoro-N-(3-hydroxypropyl)-1H-indazole-3-carboxamide]
	< 0.5	COc1ncc(F)cc1S(=O)(=O)Nc1ccc(F)c(-c2ccc3c(-c4nc(CO)c[nH]4)n[nH]c3c2F)c1F [Example 3X, N-(2,4-difluoro-3-(7-fluoro-3-(4-(hydroxymethyl)-1H-imidazol-2-yl)-1H-indazol-6-yl)phenl)-5-fluoro-2-methoxypyridine-3-sulfonamide]
	< 0.5	COc1ncc(F)cc1S(=O)(=O)Nc1cc(F)cc(-c2ccc3c(C(=O)N[C@@H]4CCN(C)C4)n[nH]c3c2F)c1F [Example 3BS, 6-(3-((5-fluoro-2-methoxy-pyridine)-3-sulfonamido)-2,5-difluorophenyl)-7-fluoro-N-((R)-1-methylpyrrolidin-3-yl)-1H-indazole-3-carboxamide]
	< 0.5	Cc1ncc(F)cc1S(=O)(=O)Nc1ccc(F)c(-c2ccc3c(-c4cccc(=O)[nH]4)n[nH]c3c2F)c1F [Example 15, N-(2,4-Difluoro-3-(7-fluoro-3-(6-oxo-1,6-dihydropyridin-2-yl)-1H-indazol-6-yl)phenyl)-5-fluoro-2-methylpyridine-3-sulfonamide]
	< 0.5	COc1ncc(F)cc1S(=O)(=O)Nc1ccc(F)c(-c2ccc3c(-c4nnc(C)[nH]4)n[nH]c3c2F)c1F [Example 3CK, N-(2,4-difluoro-3-(7-fluoro-3-(5-methyl-4H-1,2,4-triazol-3-yl)-1H-indazol-6-yl)phenyl)-5-fluoro-2-methoxypyridine-3-sulfonamide]
< 0.5		COC(=O)c1n[nH]c2c(F)c(-c3c(F)ccc(NS(=O)(=O)c4cc(Cl)cnc4OC)c3F)ccc12 [Example 4, Methyl 6-(3-((5-Chloro-2-methoxypyridine)-3-sulfonamido)-2,6-difluorophenyl)-7-fluoro-1H-indazole-3-carboxylate]
	< 0.5	COc1ncc(C#N)cc1S(=O)(=O)Nc1cc(F)cc(-c2ccc3c(C(=O)NCCCO)n[nH]c3c2F)c1F [Example 3DP, 6-(3-((5-cyano-2-methoxy-pyridine)-3-sulfonamido)-2,5-difluorophenyl)-7-fluoro-N-(3-hydroxypropyl)-1H-indazole-3-carboxamide]
	0.5 to 2.5	COc1ncc(Cl)cc1S(=O)(=O)Nc1ccc(F)c(-c2ccc3c(C(=O)Nc4cnn(C)c4)n[nH]c3c2F)c1F [Example 3BQ, 6-(3-((5-chloro-2-methoxy-pyridine)-3-sulfonamido)-2,6-difluorophenyl)-7-fluoro-N-(1-methyl-1H-pyrazol-4-yl)-1H-indazole-3-carboxamide]
	< 0.5	COc1ncc(F)cc1S(=O)(=O)Nc1ccc(F)c(-c2ccc3c(C(=O)NCCCNC(C)=O)n[nH]c3c2F)c1F [Example 3AV, N-(3-acetamidopropyl)-6-(2,6-difluoro-3-((5-fluoro-2-methoxypyridine)-3-sulfon-amido)phenyl)-7-fluoro-1H-indazole-3-carboxamide]
	0.5 to 2.5	COc1ncc(C#N)cc1S(=O)(=O)Nc1ccc(F)c(-c2ccc3c(C(=O)NCCCN(C)C)n[nH]c3c2F)c1F [Example 3BU, 6-(3-((5-cyano-2-methoxy-pyridine)-3-sulfonamido)-2,6-difluorophenyl)-N-(3-(dimethylamino)propyl)-7-fluoro-1H-indazole-3-carboxamide]
	0.5 to 2.5	Cc1ncc(S(=O)(=O)Nc2cc(F)cc(-c3ccc4c(-c5ncc[nH]5)n[nH]c4c3F)c2F)s1 [Example 3CJ, N-(2,5-difluoro-3-(7-fluoro-3-(1H-imidazol-2-yl)-1H-indazol-6-yl)phenyl)-2-methylthiazole-5-sulfonamide]
	< 0.5	COc1ncc(F)cc1S(=O)(=O)Nc1cc(F)cc(-c2ccc3c(C(N)=O)n[nH]c3c2F)c1F [Example 3AQ, 6-(2,5-difluoro-3-((5-fluoro-2-methoxypyridine)-3-sulfon-amido)phenyl)-7-fluoro-1H-indazole-3-carboxamide]
	< 0.5	COc1ncc(Cl)cc1S(=O)(=O)Nc1ccc(F)c(-c2ccc3c(C(=O)Nc4c[nH]nc4C)n[nH]c3c2F)c1F [Example 3CS, 6-(3-((5-chloro-2-methoxy-pyridine)-3-sulfonamido)-2,6-difluorophenyl)-7-fluoro-N-(3-methyl-1H-pyrazol-4-yl)-1H-indazole-3-carboxamide]
	> 10	Cc1ncc(F)cc1S(=O)(=O)Nc1cc(C#N)cc(-c2ccc3c(-c4ncc[nH]4)n[nH]c3c2F)c1F [Example 3CC, N-(5-cyano-2-fluoro-3-(7-fluoro-3-(1H-imidazol-2-yl)-1H-indazol-6-yl)phenyl)-5-fluoro-2-methylpyridine-3-sulfonamide]
	0.5 to 2.5	COc1ncc(F)cc1S(=O)(=O)Nc1cccc(-c2ccc3c(C(=O)NC[C@H](O)CO)n[nH]c3c2F)c1F [Example 3AY, 6-(2-fluoro-3-((5-fluoro-2-methoxypyridine)-3-sulfonamido)phenyl)-N-((S)-2,3-dihydroxypropyl)-7-fluoro-1H-indazole-3-carboxamide]
	2.5 to 10	COc1ncc(Cl)cc1S(=O)(=O)Nc1ccc(F)c(-c2ccc3c(C(=O)Nc4cc(F)cc(Cl)c4)n[nH]c3c2F)c1F [Example 3DA, 6-(3-((5-chloro-2-methoxy-pyridine)-3-sulfonamido)-2,6-difluorophenyl)-N-(3-chloro-5-fluorophenyl)-7-fluoro-1H-indazole-3-carboxamide]
	< 0.5	COc1ncc(F)cc1S(=O)(=O)Nc1ccc(F)c(-c2ccc3c(C(N)=O)n[nH]c3c2F)c1F [Example 3T, 6-(2,6-difluoro-3-((5-fluoro-2-methoxypyridine)-3-sulfonamido)phenyl)-7-fluoro-1H-indazole-3-carboxamide]
